Laboratory results taken from patent US7507718B2, “Polymyxin B analogs for LPS detoxification” (Sanofi Pasteur, priority 2005, dated 2009).
“And” between values parts separate entries of the source, which are not always exact repeats. Identical values can stand only once. Bridge positions count the residues as written; N and C are the ends. Peptide text beside a SMILES is read from it. I, II: the chains in the order shown.

Key:
[1] = test system: N. meningitidis strain used for LPS production; test: Serum bactericidal activity (SBA) of sera of immunized rabbits; format: in vivo; details: individual rabbits
Method: Immunization of three adult New-Zealand rabbits is performed with 100 μg of LPS-peptide complex by intramuscular (IM) and subcutaneous (SC) routes (2×0.5 mL and 5×0.2 mL respectively) in the presence of adjuvant. They receive three injections at 3-week interval; the first one with complete Freund adjuvant (FA), the second and third ones with incomplete Freund adjuvant. They are bled two weeks after the last injection. A control group is immunized with the peptide with adjuvant (71 μg, equivalent to the amount of the peptide in 100 μg of LPS-peptide complex) using the same protocol.
The bactericidal activity of the serum (SBA) samples is evaluated against the N. meningitidis strain used for LPS production as described in Example 5 in the presence of baby rabbit serum as exogenous source of complement.
Sera are heat-inactivated during 30 min at 56° C. In the wells of a 96-well microplate, heat-inactivated sera are then twofold serially diluted (10 times) in Dulbecco's phosphate buffered saline containing Ca^++ and Mg^++ (volume per well: 50 μl).
Twenty five μl of a log phase culture of N. meningitidis grown in Mueller-Hinton broth (4.10^3 CFU/mL) and 25 μl of baby rabbit serum are added to each well. The plate is incubated one hour at 37° C., under shaking.
Fifty μl of the mixture from each well are plated onto Mueller-Hinton agar. Petri dishes are incubated overnight at +37° C. in a 10% CO2 atmosphere.
In each experiment, controls include (i) bacteria and the complement source without antibodies (complement control), (ii) bacteria and heat-inactivated complement, and (iii) bacteria and heat-inactivated complement, in the presence of antibodies.
Bactericidal titre is reported as the highest reciprocal serum dilution at which ≧50% killing of bacteria is observed as compared to the complement control.

IL6 release = test: In vivo cytokine release in sera of CD1 mice (ELISA): IL6; parameters: species or system mouse
Method: (§1) In order to evaluate to which extent the LPS-peptide complex can attenuate LPS-induced toxic effects, the effect of the LPS-peptide complex on the release of pro-inflammatory cytokines is monitored (assessed) in in vitro and in vivo assays. • In vivo: cytokine (IL6 and TNFα) releases in the sera of mice immunized either with LPS or LPS-peptide complex are compared by ELISA. Blood samples are recovered 90 min after SC immunization, which is the optimal time for the release of those cytokines. C3H/HeOuJ, TLR4-/-, C3H/HeN and CD1 mouse strains are tested. The two first are sensitive neither to LPS nor LPS-peptide complex. The third and fourth are both found LPS-sensitive. CD1 mice are found more LPS-peptide complex-sensitive than the others and therefore selected for further experiments retaining the most severe conditions. • In vitro:cytokine (IL6, IL8 and TNFα) releases from human whole blood cell cultures stimulated for 24h at 37° C., with different concentrations of LPS or LPS-peptide complex are compared. 5.4.1. In Vivo Assay
(§2) CD1 mice are administered subcutaneously (SC) (i) either 10 μg of LPS or (ii) 10 μg of LPS-peptide complex. They are bled 90 minutes after injection. IL6 and TNFα releases are measured in the sera by ELISA. […]
(§3) The reaction is stopped by adding 100 μl of 1 M H3PO4 per well. Plates are read at 450 nm.

TNFα release = test: In vivo cytokine release in sera of CD1 mice (ELISA): TNFα; parameters: species or system mouse
Method: as §1, §2, §3

[2] = 10 μg SC, sera 90 minutes after injection

CC(C)C[C@@H]1NC(=O)[C@H](CC(C)C)NC(=O)[C@H](CC(C)C)NC(=O)[C@H](Cc2ccccc2)NC(=O)[C@H](CCCCN)NC(=O)[C@@H](NC(=O)[C@H](CCCCN)NC(=O)[C@@H](NC(=O)[C@@H](N)CCCCN)[C@@H](C)O)CSSC[C@@H](C(=O)O)NC(=O)[C@H](CC(C)C)NC(=O)[C@H](CC(C)C)NC(=O)[C@H](CC(C)C)NC(=O)[C@H](Cc2ccccc2)NC(=O)[C@H](CCCCN)NC(=O)[C@@H](NC(=O)[C@H](CCCCN)NC(=O)[C@@H](NC(=O)[C@@H](N)CCCCN)[C@@H](C)O)CSSC[C@@H](C(=O)O)NC1=O [Peptide, NH2-Lys-Thr-Lys-Cys1-Lys-Phe-Leu-Leu-Leu-Cys2-COOH] (I: H-KTKCKFLLLC-OH / II: H-KTKCKFLLLC-OH; disulfide I:4-II:10, I:10-II:4)
SBA titre, Pre-immunized sera ([1]; baseline before immunization, baby rabbit complement): 4 and 16
SBA titre, Post-dose 3 immunized sera ([1]; 100 μg complex or 71 μg peptide IM+SC with Freund adjuvant, three injections): 16
SBA titre, Post-dose 3 immunized sera adsorbed on LPS ([1]; sera adsorbed on LPS): 4 and 8
IL6 release, Mean (pg/mL) n = 6 (log) (IL6 release; [2]): <1 pg/mL (log)
Induction of IL6 (in words) (IL6 release; peptide alone): does not induce
TNFα release, Mean (pg/mL) n = 6 (log) (TNFα release; [2]): <1 pg/mL (log)
Induction of TNFα (in words) (TNFα release; peptide alone): does not induce
